{"source": "paper PMC11440035", "about": "“Interaction of myricetin, ampelopsin (dihydromyricetin), and their sulfate metabolites with serum albumin, cytochrome P450 (CYP2C9, 2C19, and 3A4) enzymes, and organic anion‐transporting polypeptides (OATP1B1 and OATP2B1)” (Pharmacology Research & Perspectives, 2024)", "key": {"[1]": {"tested_on": "T1, human serum albumin (HSA)", "T1 construct": "purchased Merck (Darmstadt, Germany) A1653", "assay": "Fluorescence quenching of HSA by flavonoids (Stern–Volmer and modified Stern–Volmer)", "type": "binding", "settings": "for albumin‐bound fraction: estimated from K, 1:1 stoichiometry, 1 μM flavonoid, 600 μM HSA (≈ 40 g/L)", "method": "Fluorescence spectroscopic measurements were performed in phosphate‐buffered saline (PBS, pH 7.4) at room temperature, using a Hitachi F‐4500 spectrofluorometer (Tokyo, Japan). Increasing amounts of flavonoids (final concentrations: 0, 1, 2, 3, 4, 5, and 6 μM) were added to HSA (2 μM), after which fluorescence emission spectra were collected (λ ex = 295 nm). UV–Vis spectra of MYR, M3′S, AMP, and A4′S were also recorded, and their inner‐filter effects were corrected as it has been reported.[37], [38] Flavonoid–HSA interactions were evaluated based on the graphical application of the Stern–Volmer equation[18], [39]: (1) I0/I=1+KSV×Q where K SV is the Stern–Volmer quenching constant, I 0 denotes the emission intensity of HSA alone at 340 nm, I marks the emission signal of albumin at 340 nm in the presence of flavonoids, while [Q] is the molar concentration of the quencher. Thereafter, binding constants (K) of the formed complexes were determined based on the modified Stern–Volmer equation[39], [40]: (2) I0/I0−I=1/fa×K×1/Q+1/fa where f a is the fraction of the accessible fluorophore.\nUsing the binding/association constants and assuming 1:1 stoichiometry of complex formation, we estimated the bound fractions of M3′S and A4′S in the circulation based on the following equation[41]: (3) K=FH/F×HSA where [F], [HSA], and [FH] are the molar concentrations of the unbound free flavonoid, the unbound free HSA, and the flavonoid–HSA complex, respectively. In these calculations, we hypothesized the presence of 1.0 μM levels of M3′S or A4′S in the presence of 600 μM (≈ 40 g/L) of HSA."}, "OATP2B1 [2]": {"biological_target": "T2, OATP2B1 (Homo sapiens, UniProt O94956)", "T2 construct": "expressed in transfected cells; host or cells: A431", "T2 sequence (O94956 1-709)": "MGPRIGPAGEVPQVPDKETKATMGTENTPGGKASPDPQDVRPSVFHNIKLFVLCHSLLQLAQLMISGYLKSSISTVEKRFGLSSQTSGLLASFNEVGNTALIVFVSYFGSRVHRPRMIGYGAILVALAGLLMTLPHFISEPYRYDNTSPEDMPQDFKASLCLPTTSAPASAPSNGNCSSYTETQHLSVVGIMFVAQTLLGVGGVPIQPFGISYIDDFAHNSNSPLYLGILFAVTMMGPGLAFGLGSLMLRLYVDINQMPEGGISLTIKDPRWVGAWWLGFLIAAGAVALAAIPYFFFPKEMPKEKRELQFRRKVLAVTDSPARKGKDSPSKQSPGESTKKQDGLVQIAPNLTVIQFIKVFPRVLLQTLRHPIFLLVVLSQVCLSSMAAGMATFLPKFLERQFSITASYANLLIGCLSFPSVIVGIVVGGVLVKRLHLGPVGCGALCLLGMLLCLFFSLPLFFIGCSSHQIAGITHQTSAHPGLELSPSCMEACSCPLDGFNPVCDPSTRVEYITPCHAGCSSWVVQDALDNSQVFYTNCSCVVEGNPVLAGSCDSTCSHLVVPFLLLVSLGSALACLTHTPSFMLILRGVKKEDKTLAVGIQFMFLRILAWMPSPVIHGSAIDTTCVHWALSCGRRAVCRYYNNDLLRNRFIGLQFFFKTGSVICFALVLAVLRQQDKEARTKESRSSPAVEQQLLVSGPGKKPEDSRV", "assay": "Inhibition of OATP2B1-mediated pyranine uptake in A431 cells", "type": "cell-based", "settings": "for inhibition at 15 min, 25 μM: human, A431 cells overexpressing OATP2B1, pH 5.5, probe pyranine, 20 μM, read-out: inhibition / reduction of OATP2B1 transport activity; for inhibition at 15 min, 25 μM / inhibition of OATP2B1 in words: 25 μM flavonoid; for IC50: 15 min, uptake buffer pH 5.5, A431-OATP2B1 cells; for inhibitory strength on OATP2B1 relative to A4′S: ratio of IC50 values", "method": "Human A431 cells overexpressing OATPs (OATP1B1 or OATP2B1) and their mock‐transfected controls were established earlier.[42], [43] The cells were maintained at 37°C with 5% CO2 in Dulbecco's Modified Eagle Medium (DMEM; Thermo Fischer Scientific, Waltham, MA, USA) supplemented with fetal bovine serum (10%), L‐glutamine (2 mM), penicillin (100 units/mL) and streptomycin (100 μg/mL).\nThe inhibitory impacts of MYR, AMP, and their sulfate metabolites on OATP1B1 and OATP2B1 were examined using the fluorescent dye substrates disulfopyrene (6,8‐dihydroxy‐1,3‐disulfopyrene) and pyranine, respectively.[42], [43] The day before the transport measurements, A431 cells overexpressing OATP1B1 or OATP2B1 (and their mock‐transfected controls) were seeded onto 96‐well plates at a density of 80 000 cells/well in DMEM (200 μL). Next day, the medium was removed, the cells were washed three times with PBS (pH 7.4, 200 μL) at room temperature, then the cells were pre‐incubated with 50 μL of Hank's Balanced Salt Solution (HBSS, pH 7.4; OATP1B1) or uptake buffer (pH 5.5; OATP2B1) for 5 min at 37°C with or without the flavonoids.[43] The transport reaction was started by adding 50 μL of disulfopyrene‐containing (final concentration: 10 μM) HBSS (OATP1B1 assay), or pyranine‐containing (final concentration: 20 μM) uptake buffer (OATP2B1 assay). After 10 min (OATP1B1) or 15 min (OATP2B1), the transport was stopped by removing the supernatant and washing the cells three times with ice‐cold PBS (200 μL). Then the fluorescence was measured in 200 μL of PBS using an Enspire plate reader (PerkinElmer, Waltham, MA, US) at excitation and emission wavelengths of 460/510 nm. OATP‐dependent transport was determined by subtracting the fluorescence detected in mock control cells from that of OATP‐expressing cells. Transport activity was measured based on the fluorescence signal in the absence of flavonoids (100%)."}, "CYP2C19": {"tested_on": "T3, CYP2C19", "T3 construct": "purchased Merck (Darmstadt, Germany)", "assay": "CYP2C19 assay ((S)‐mephenytoin hydroxylation), CypExpress human kit", "type": "biochemical", "settings": "probe (S)‐mephenytoin, 20 μM flavonoid, 5 μM substrate, read-out: inhibitory action on CYP2C19‐mediated (S)‐mephenytoin hydroxylation", "method": "The isocratic elution was carried out with sodium acetate buffer (6.9 mM, pH 4) and acetonitrile (72:28 v/v%) as the mobile phase. (S)‐Mephenytoin and 4‐hydroxymephenytoin were detected at 230 nm."}, "[3]": {"set-up": "method as in PMID 26032587", "settings": "double‐blind randomized controlled clinical trial; cited from earlier work"}, "[4]": {"settings": "cited from earlier work"}, "OATP2B1 [5]": {"tested_on": "OATP2B1", "set-up": "method as in PMID 37252098, PMID 28745105", "settings": "cited from earlier work"}, "[6]": {"settings": "cited from earlier work", "remark": "listed apart in the source"}, "OATP1B1": {"tested_on": "OATP1B1", "settings": "cited from earlier work"}, "[7]": {"settings": "pyranine 20 μM, read-out: IC50, OATP2B1"}}, "note": "Several values for one entry are separate records, joined by “and”; a condition that tells them apart may be missing. Equal values may be shown once. Read-outs that look alike come from different tables or passages of the source.", "data": [{"smiles": "O=C1c2c(O)cc(O)cc2OC(c2cc(O)c(OS(=O)(=O)O)c(O)c2)C1O", "note": "(centres unmarked) [A4′S, ampelopsin‐4′‐O‐sulfate]", "values": [{"measurement": "albumin‐bound fraction", "setting": "[1]", "result": "~94", "unit": "%"}, {"measurement": "inhibition at 15 min, 25 μM", "setting": "OATP2B1 [2]", "result": 90, "unit": "%"}, {"measurement": "IC50", "setting": "OATP2B1 [2]; [7]", "result": "2150 nM and 2200 nM"}]}, {"smiles": "O=C1c2c(O)cc(O)cc2O[C@H](c2cc(O)c(O)c(O)c2)[C@H]1O", "note": "[AMP, ampelopsin]", "values": [{"measurement": "inhibition at 20 μM", "setting": "CYP2C19", "result": 5, "unit": "%"}, {"measurement": "binding constant (K) of flavonoid–HSA complex", "setting": "[1]; modified Stern–Volmer equation, HSA 2 μM, flavonoid 0–6 μM, PBS pH 7.4, λex 295 nm, λem 340 nm", "result": "5.5 × 10^4 L/mol and ≈ 10^4 L/mol"}, {"measurement": "effect in patients with nonalcoholic fatty liver disease", "setting": "[3]", "result": "improved glucose and lipid metabolism"}, {"measurement": "oral bioavailability", "setting": "[4]; AMP, rat studies", "result": "approximately 4%"}, {"measurement": "peak plasma concentrations of the aglycone", "setting": "[4]; rats, peroral 100 mg/kg AMP", "result": "300 to 500", "unit": "nM"}, {"measurement": "inhibition at 15 min, 25 μM", "setting": "OATP2B1 [2]", "result": "~70", "unit": "%"}]}, {"smiles": "O=c1c(O)c(-c2cc(O)c(O)c(OS(=O)(=O)O)c2)oc2cc(O)cc(O)c12", "note": "[M3′S, myricetin‐3′‐O‐sulfate]", "values": [{"measurement": "albumin‐bound fraction", "setting": "[1]", "result": "exceeds 99%"}, {"measurement": "inhibition of OATP2B1 in words", "setting": "OATP2B1 [2]", "result": "almost completely blocked"}, {"measurement": "IC50", "setting": "OATP2B1 [2]; [7]", "result": "290 nM and 300 nM"}, {"measurement": "inhibitory strength on OATP2B1 relative to A4′S", "setting": "OATP2B1 [2]", "result": "seven‐fold"}]}, {"smiles": "O=c1c(O)c(-c2cc(O)c(O)c(O)c2)oc2cc(O)cc(O)c12", "note": "[MYR, myricetin]", "values": [{"measurement": "inhibitory effects on OATP2B1‐dependent transport of 4′,5′‐dibromofluorescein and estrone 3‐sulfate", "setting": "OATP2B1 [5]", "result": "only weak inhibitory effects"}, {"measurement": "oral bioavailability", "setting": "[4]; MYR, rats", "result": "less than 10%"}, {"measurement": "peak plasma concentrations of MYR and its (sulfate and glucuronide) metabolites together", "setting": "[4]; rats, per os 100 mg/kg MYR", "result": 8, "unit": "µM"}, {"measurement": "inhibition of OATP2B1 in words", "setting": "OATP2B1 [2]", "result": "almost completely blocked"}, {"measurement": "IC50", "setting": "OATP2B1 [2]; IC50, OATP2B1, pyranine 20 μM", "result": "430 nM and 400 nM"}, {"measurement": "inhibitory strength on OATP2B1 relative to A4′S", "setting": "OATP2B1 [2]", "result": "five‐fold"}, {"measurement": "effect on plasma levels of tolbutamide (CYP2C9 substrate) and midazolam (CYP3A4 substrate)", "setting": "[6]; rat experiment", "result": "increased the plasma levels of tolbutamide"}, {"measurement": "effect of peroral co‐administration on docetaxel pharmacokinetics", "setting": "[6]; rat study", "result": "increased the oral bioavailability and peak plasma concentration of the drug"}, {"measurement": "decrease in the OATP1B1‐mediated transport of dehydroepiandrosterone sulfate and fluvastatin", "setting": "OATP1B1; 50 μM MYR", "result": "approximately 35%"}, {"measurement": "IC50", "setting": "OATP1B1; read-out: IC50, OATP1B1, 2′,7′‐dichlorofluorescein uptake", "result": 5800, "unit": "nM"}]}]}
